Data from patent US20200046763A1, “APPLICATION OF GSK3 INHIBITOR IN PREPARING A DRUG TO TREAT NIEMANN-PICK DISEASE TYPE C” (WUXI HANQIANG PHARMACEUTICAL TECHNOLOGY CO., LTD., priority 2016, published 2020).

What was measured:
NPC1 KO mice = assay: Effect of GSK3 inhibitor on NPC1 KO mouse model; type: in vivo; conditions: LiCl 85 mg/kg or CHIR99021 20 mg/kg intraperitoneally daily from first week (b9: or same dose intragastrically)
Method: NPC1 KO mice are divided into three groups (a control group, a LiCl treatment group and a CHIR99021 treatment group), with five mice in each group. From the first week after birth, the mice in the LiCl treatment group and the CHIR99021 treatment group are intraperitoneally injected with LiCl (85 mg/kg) and CHIR99021 (20 mg/kg) per day respectively, the mice in the control group are intraperitoneally injected with normal saline, and the survival rate of the mice is continuously observed.
An NPC1 gene knock-out (KO) mouse preparation method: the NPC1 genes are knocked out by CRISPY_Cas9 to obtain NPC1−/−mice.
The NPC mouse model is prepared according to the method of Embodiment II, and LiCl (the dose of 85 mg/kg) or CRIR99021 (the dose of 20 mg/kg) is intraperitoneally injected every day from the first week.
The testing indexes are phenotypes of hematological and neurological systems, as well as symptoms and signs.

[1] = system: NPC1 KD or NPC1 KO hematopoietic and neural stem cells; assay: Effect of GSK3 inhibitor on NP-C cell model (proliferation, stem cell self-renewal and differentiation); type: cell-based, mouse; conditions: for self-renewal and differentiation capacities of hematopoietic and neural stem cells: NPC1 KD or NPC1 KO cells, LiCl 10 MM, CHIR99021 3 uM
Method: 2) NPC1 gene expression knock-down (KD) human and mouse cells: lentivirus expressing human and mouse NPC1 shRNA is prepared, lentivirus infects human embryonic kidney 293T and Mouse Embryonic Fibroblast (MEF), positive infected cells are screened by puromycin, and qPCR and western blotting validate the effect of NPC1 gene expression knock-down, to obtain the NPC1 KD cell model.
According to the method of Embodiment I, NPC model cells are prepared, and hematopoietic stem cells and neural stem cells of the NPC1 KO mice are isolated.
Experimental procedures and measurement indexes are: treatment of NPC1 KD and NPC1 KO cells with GSK3 specific inhibitors, i.e., LiCl and CHIR99021, and observation of changes in cell proliferation and stern cell self-renewal and differentiation.

[2] = NPC1 KD hematopoietic stem cells, 10 mM LiCl

Structure (SMILES) | hematopoietic function of the mice (NPC1 KO mice) | neurodegenerative change symptoms (NPC1 KO mice) | self-renewal and differentiation capacities of hematopoietic and neural stem cells [1] | increase of colony formation capacity [1, 2] | increase of proliferation capacity of hematopoietic stem cells [1, 2]
Cc1c[nH]c(-c2cnc(NCCNc3ccc(C#N)cn3)nc2-c2ccc(Cl)cc2Cl)n1 [CHIR99021] | significantly improved | significantly improved | significantly improve | – | –
[Cl-].[Li+] [LiCl] | significantly improved | significantly improved | significantly improve | ≥ 30% | ≥ 50%
